In patent US8906899B2, “Azetidine derivatives as sphingosine 1-phosphate (S1P) receptor modulators” (Allergan, Inc., priority 2010, dated 2014) one finds EC50 data, which are given here for six molecules.

As a reminder, the EC50 is the concentration giving half of the maximal effect. The low end stands for greater potency, the high end for weaker potency.

Molecules are shown by their SMILES.

T1 sequence (P21453 whole entry): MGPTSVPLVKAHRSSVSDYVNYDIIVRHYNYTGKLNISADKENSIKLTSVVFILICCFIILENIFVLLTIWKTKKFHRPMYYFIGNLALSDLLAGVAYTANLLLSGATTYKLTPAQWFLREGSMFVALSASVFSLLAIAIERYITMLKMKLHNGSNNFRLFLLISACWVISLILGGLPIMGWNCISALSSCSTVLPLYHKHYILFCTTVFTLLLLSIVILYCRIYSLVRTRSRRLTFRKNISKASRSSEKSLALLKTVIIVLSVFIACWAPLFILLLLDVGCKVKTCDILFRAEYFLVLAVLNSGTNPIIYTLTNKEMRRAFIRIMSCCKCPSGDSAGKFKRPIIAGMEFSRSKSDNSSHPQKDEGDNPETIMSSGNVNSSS

The assay has as its target T1, human S1P1 receptor (Homo sapiens, UniProt P21453).
T1 construct: expressed in transfected cells; membranes used
In words: GTP γ35S binding assay for S1P1 activity. The format is biochemical. Conditions: activity potency from GTP γ35S binding; membranes, test compounds 0.08 to 5,000 nM, 30 min at 25° C. On the procedure: Compounds were synthesized and tested for S1P1 activity using the GTP γ^35S binding assay. These compounds may be assessed for their ability to activate or block activation of the human S1P1 receptor in cells stably expressing the S1P1 receptor.
GTP γ^35S binding was measured in the medium containing (mM) HEPES 25, pH 7.4, MgCl2 10, NaCl 100, dithitothreitol 0.5, digitonin 0.003%, 0.2 nM GTP γ^35S, and 5 μg membrane protein in a volume of 150 μl. Test compounds were included in the concentration range from 0.08 to 5,000 nM unless indicated otherwise. Membranes were incubated with 100 μM 5′-adenylylimmidodiphosphate for 30 min, and subsequently with 10 μM GDP for 10 min on ice. Drug solutions and membrane were mixed, and then reactions were initiated by adding GTP γ^35S and continued for 30 min at 25° C. Reaction mixtures were filtered over Whatman GF/B filters under vacuum, and washed three times with 3 mL of ice-cold buffer (HEPES 25, pH7.4, MgCl2 10 and NaCl-100). Filters were dried and mixed with scintillant, and counted for ^35S activity using a β-counter. Agonist-induced GTP γ^35S binding was obtained by subtracting that in the absence of agonist. Binding data were analyzed using a non-linear regression method. In case of antagonist assay, the reaction mixture contained 10 nM S1P in the presence of test antagonist at concentrations ranging from 0.08 to 5000 nM.
In general terms: GTPγS is a poorly hydrolysed GTP analogue; its binding reports G protein activation.
In turn, `Cc1ccc(NC(c2cccc(Cl)c2)c2nc(-c3ccc(CN4CC(C(=O)O)C4)cc3)no2)cc1C` (stereo not drawn) [Compound 6, 1-[4-(5-{(3-chlorophenyl)[(3,4-dimethylphenyl)amino]methyl}-1,2,4-oxadiazol-3-yl)benzyl]azetidine-3-carboxylic acid] returned an EC50 of 312 nM. As for `O=C(NCc1ccc2c(c1)OCO2)c1cc(-c2ccccc2)c(N2CCOCC2)s1` [N-(1,3-benzodioxol-5-ylmethyl)-5-morpholin-4-yl-4-phenylthiophene-2-carboxamide], the EC50 amounted to 336 nM. As to `CCCc1ccc(OC(c2cccc(Cl)c2)c2nc(-c3ccc(CN4CC(C(=O)O)C4)cc3)no2)cc1` (stereo not drawn) [Compound 3, 1-(4-{5-[(3-chlorophenyl)(4-propylphenoxy)methyl]-1,2,4-oxadiazol-3-yl}benzyl)azetidine-3-carboxylic acid], the concentration giving a half-maximal response (EC50) is 1100 nM. `Cc1ccc(OC(c2nc(-c3ccc(CN4CC(C(=O)O)C4)cc3)no2)c2ccccc2Cl)cc1C` (stereo not drawn) [Compound 4, 1-(4-{5-[(2-chlorophenyl)(3,4-dimethylphenoxy)methyl]-1,2,4-oxadiazol-3-yl}benzyl)azetidine-3-carboxylic acid]: it took 911 nM to reach a half-maximal effect (EC50). `CCc1ccc(OC(c2cccc(Cl)c2)c2nc(-c3ccc(CN4CC(C(=O)O)C4)cc3)no2)cc1` (stereo not drawn) [Compound 1, 1-(4-{5-[(3-chlorophenyl)(4-ethylphenoxy)methyl]-1,2,4-oxadiazol-3-yl}benzyl)azetidine-3-carboxylic acid] yielded an EC50 of 1060 nM.

Consider `Cc1ccc(OC(c2cccc(Cl)c2)c2nc(-c3ccc(CN4CC(C(=O)O)C4)cc3)no2)cc1C` (stereo not drawn) [Compound 2, 1-(4-{5-[(3-chlorophenyl)(3,4-dimethylphenoxy)methyl]-1,2,4-oxadiazol-3-yl}benzyl)azetidine-3-carboxylic acid], for which it took 598 nM to reach a half-maximal effect (EC50).
